Activity calls are given as the source filed them. No cut-off for these calls is given here.
test system: PC-3; assay: Antitumor activity against human PC3 xenografted in po dosed nu/nu mouse assessed as inhibition of tumor growth administered once daily measured after 11 days; assay type: functional; conditions: PC-3, po, 264 h, read-out: MED

SMILES | minimal effective dose [mg/kg]
CC(C)NC[C@@H](C(=O)N1CCN(c2ncnc3c2[C@H](C)C[C@H]3O)CC1)c1ccc(Cl)cc1 [IPATASERTIB] | 25

test system: not listed separately; assay: Competitive inhibition of PKA expressed in Escherichia coli assessed as fluorescence labeled peptide substrate phosphorylation after 60 mins in presence of ATP; conditions: not given

SMILES | IC50 [nM]
C[C@@H]1C[C@@H](O)c2ncnc(N3CCN(C(=O)[C@H](CN)c4ccc(C(F)(F)F)cc4)CC3)c21 | 418
C[C@@H]1C[C@@H](O)c2ncnc(N3CCN(C(=O)[C@H](CNCC4CCOCC4)c4ccc(Cl)cc4)CC3)c21 | 436
C[C@@H]1C[C@@H](O)c2ncnc(N3CCN(C(=O)[C@H](CNCC(F)(F)F)c4ccc(Cl)cc4)CC3)c21 | > 10000
C[C@@H]1C[C@@H](O)c2ncnc(N3CCN(C(=O)[C@H](CNC4CCCCC4)c4ccc(Cl)cc4)CC3)c21 | 1280
C[C@@H]1C[C@@H](O)c2ncnc(N3CCN(C(=O)[C@H](CNC(C)(C)C)c4ccc(C(F)(F)F)c(F)c4)CC3)c21 | 153
C[C@@H]1C[C@@H](O)c2ncnc(N3CCN(C(=O)[C@H](CNC(C)(C)CO)c4ccc(C(F)(F)F)c(F)c4)CC3)c21 | 75
CC(C)NC[C@@H](C(=O)N1CCN(c2ncnc3c2[C@H](C)C[C@H]3O)CC1)c1ccc(Cl)cc1 [IPATASERTIB] | 3100

test system: PC-3; assay: Antitumor activity against human PC3 xenografted in nu/nu mouse assessed as inhibition of tumor growth at 50 mg/kg, po bid after 11 days; assay type: functional; conditions: PC-3, 264 h, read-out: TGI

SMILES | inhibition in vivo at 50 mg/kg [%]
CC(C)NC[C@@H](C(=O)N1CCN(c2ncnc3c2[C@H](C)C[C@H]3O)CC1)c1ccc(Cl)cc1 [IPATASERTIB] | 81

test system: PC-3; assay: Antitumor activity against human PC3 xenografted in nu/nu mouse assessed as inhibition of tumor growth at 100 mg/kg, po qd after 11 days; assay type: functional; conditions: PC-3, 264 h, read-out: TGI

SMILES | inhibition in vivo at 100 mg/kg [%]
CC(C)NC[C@@H](C(=O)N1CCN(c2ncnc3c2[C@H](C)C[C@H]3O)CC1)c1ccc(Cl)cc1 [IPATASERTIB] | 79

test system: PC-3; assay: Antitumor activity against human PC3 xenografted in nu/nu mouse assessed as inhibition of tumor growth at 25 mg/kg, po qd after 11 days; assay type: functional; conditions: PC-3, 264 h, read-out: TGI

SMILES | inhibition in vivo at 25 mg/kg [%]
CC(C)NC[C@@H](C(=O)N1CCN(c2ncnc3c2[C@H](C)C[C@H]3O)CC1)c1ccc(Cl)cc1 [IPATASERTIB] | 49

test system: Mus musculus; assay: Toxicity in nu/nu mouse xenografted with human PC3 cells assessed as loss in body weight at 150 mg/kg, po qd after 8 days relative to vehicle-treated control; assay type: organism-based, PC-3; design: dose 150 mg/kg, route oral; conditions: in vivo, 192 h

SMILES | Activity
CC(C)NC[C@@H](C(=O)N1CCN(c2ncnc3c2[C@H](C)C[C@H]3O)CC1)c1ccc(Cl)cc1 [IPATASERTIB] | >= 20%

test system: Mus musculus; assay: Toxicity in nu/nu mouse xenografted with human PC3 cells assessed as loss in body weight at 1 to 100 mg/kg, po qd relative to vehicle-treated control; assay type: organism-based, PC-3; design: dose 1-100 mg/kg, route oral; conditions: in vivo

SMILES | Activity [%]
CC(C)NC[C@@H](C(=O)N1CCN(c2ncnc3c2[C@H](C)C[C@H]3O)CC1)c1ccc(Cl)cc1 [IPATASERTIB] | < 10

test system: Mus musculus; assay: Inhibition of Akt in nu/nu mouse xenografted with human PC3 cells assessed as decrease in tumor p-PRAS40 level at 100 mg/kg, po at 8 hrs by ELISA relative to total PRAS40; assay type: functional; conditions: PC-3, 8 h

SMILES | inhibition in vivo at 100 mg/kg [%]
CC(C)NC[C@@H](C(=O)N1CCN(c2ncnc3c2[C@H](C)C[C@H]3O)CC1)c1ccc(Cl)cc1 [IPATASERTIB] | 87

test system: not listed separately; assay: Plasma concentration in nu/nu mouse xenografted with human PC3 cells at 100 mg/kg, po at 8 hrs by LC/MS/MS analysis; assay type: ADME, organism-based, PC-3; design: dose 100 mg/kg, route oral; conditions: not given

SMILES | concentration at 8 h [nM]
CC(C)NC[C@@H](C(=O)N1CCN(c2ncnc3c2[C@H](C)C[C@H]3O)CC1)c1ccc(Cl)cc1 [IPATASERTIB] | > 2600

test system: Mus musculus; assay: Inhibition of Akt in nu/nu mouse xenografted with human PC3 cells assessed as decrease in tumor p-PRAS40 level at 100 mg/kg, po within 3 hrs by ELISA relative to total PRAS40; assay type: functional; conditions: PC-3, 3 h

SMILES | inhibition in vivo at 100 mg/kg [%]
CC(C)NC[C@@H](C(=O)N1CCN(c2ncnc3c2[C@H](C)C[C@H]3O)CC1)c1ccc(Cl)cc1 [IPATASERTIB] | > 95

test system: not listed separately; assay: Plasma concentration in nu/nu mouse xenografted with human PC3 cells at 50 mg/kg, po at 9 hrs by LC/MS/MS analysis; assay type: ADME, organism-based, PC-3; design: dose 50 mg/kg, route oral; conditions: not given

SMILES | concentration at 9 h [nM]
CC(C)NC[C@@H](C(=O)N1CCN(c2ncnc3c2[C@H](C)C[C@H]3O)CC1)c1ccc(Cl)cc1 [IPATASERTIB] | 500

test system: not listed separately; assay: Plasma concentration in nu/nu mouse xenografted with human PC3 cells at 50 mg/kg, po at 1 hr by LC/MS/MS analysis; assay type: ADME, organism-based, PC-3; design: dose 50 mg/kg, route oral; conditions: not given

SMILES | concentration at 1 h [µM]
CC(C)NC[C@@H](C(=O)N1CCN(c2ncnc3c2[C@H](C)C[C@H]3O)CC1)c1ccc(Cl)cc1 [IPATASERTIB] | 7.4

test system: not listed separately; assay: Plasma concentration in nu/nu mouse xenografted with human PC3 cells at 50 mg/kg, po within 1 hr by LC/MS/MS analysis; assay type: ADME, organism-based, PC-3; design: dose 50 mg/kg, route oral; conditions: not given

SMILES | concentration at 1 h [nM]
CC(C)NC[C@@H](C(=O)N1CCN(c2ncnc3c2[C@H](C)C[C@H]3O)CC1)c1ccc(Cl)cc1 [IPATASERTIB] | ≥ 200

test system: not listed separately; assay: Plasma concentration in nu/nu mouse xenografted with human PC3 cells at 12.5 mg/kg, po within 1 hr by LC/MS/MS analysis; assay type: ADME, organism-based, PC-3; design: dose 12.5 mg/kg, route oral; conditions: not given

SMILES | concentration at 1 h [nM]
CC(C)NC[C@@H](C(=O)N1CCN(c2ncnc3c2[C@H](C)C[C@H]3O)CC1)c1ccc(Cl)cc1 [IPATASERTIB] | ≥ 200

test system: BT-474; assay: Cytotoxicity against human BT474M1 cells assessed as decrease in cell viability after 96 hrs by CellTitre-Glo assay; conditions: BT474M1, 96 h

SMILES | IC50 [nM]
CC(C)NC[C@@H](C(=O)N1CCN(c2ncnc3c2[C@H](C)C[C@H]3O)CC1)c1ccc(Cl)cc1 [IPATASERTIB] | 1000

test system: MCF7; assay: Cytotoxicity against human MCF7 cells overexpressing Her2 assessed as decrease in cell viability after 96 hrs by CellTitre-Glo assay; conditions: MCF7, 96 h

SMILES | IC50 [nM]
CC(C)NC[C@@H](C(=O)N1CCN(c2ncnc3c2[C@H](C)C[C@H]3O)CC1)c1ccc(Cl)cc1 [IPATASERTIB] | 1000

test system: PC-3; assay: Cytotoxicity against human PC3 cells assessed as decrease in cell viability after 96 hrs by CellTitre-Glo assay; conditions: PC-3, 96 h

SMILES | IC50 [nM]
CC(C)NC[C@@H](C(=O)N1CCN(c2ncnc3c2[C@H](C)C[C@H]3O)CC1)c1ccc(Cl)cc1 [IPATASERTIB] | 1000

test system: LNCaP; assay: Cytotoxicity against human LNCAP cells assessed as reduction of resazurin to resorufin after 72 hrs; conditions: not given

SMILES | IC50 [nM]
CC(C)NC[C@@H](C(=O)N1CCN(c2ncnc3c2[C@H](C)C[C@H]3O)CC1)c1ccc(Cl)cc1 [IPATASERTIB] | 95

test system: not listed separately; assay: Solubility of the compound at pH 1.2 to 7.4; assay type: physicochemical; conditions: buffer

SMILES | solubility [µg/mL]
CC(C)NC[C@@H](C(=O)N1CCN(c2ncnc3c2[C@H](C)C[C@H]3O)CC1)c1ccc(Cl)cc1 [IPATASERTIB] | > 10000

target: T1, RAC-alpha serine/threonine-protein kinase (Homo sapiens, UniProt P31749); conditions: not given
T1 sequence (P31749 whole entry): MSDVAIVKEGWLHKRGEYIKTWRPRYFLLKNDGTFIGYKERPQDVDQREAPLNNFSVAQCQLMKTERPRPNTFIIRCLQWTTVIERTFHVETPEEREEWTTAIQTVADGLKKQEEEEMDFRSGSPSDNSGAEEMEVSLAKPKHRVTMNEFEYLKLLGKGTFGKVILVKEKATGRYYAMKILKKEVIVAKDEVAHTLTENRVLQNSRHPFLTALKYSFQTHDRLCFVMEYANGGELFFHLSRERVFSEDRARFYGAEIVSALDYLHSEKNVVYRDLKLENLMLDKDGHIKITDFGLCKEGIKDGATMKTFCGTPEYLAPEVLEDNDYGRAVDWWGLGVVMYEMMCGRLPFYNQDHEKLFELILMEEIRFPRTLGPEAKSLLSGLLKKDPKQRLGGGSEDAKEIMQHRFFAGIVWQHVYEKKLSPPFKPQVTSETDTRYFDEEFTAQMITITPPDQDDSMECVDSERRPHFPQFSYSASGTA

SMILES | IC50 [nM]
C[C@@H]1C[C@@H](O)c2ncnc(N3CCN(C(=O)[C@H](CN)c4ccc(C(F)(F)F)cc4)CC3)c21 | 12
C[C@@H]1C[C@@H](O)c2ncnc(N3CCN(C(=O)[C@H](CNCC4CCOCC4)c4ccc(Cl)cc4)CC3)c21 | 3
C[C@@H]1C[C@@H](O)c2ncnc(N3CCN(C(=O)[C@H](CNCC(F)(F)F)c4ccc(Cl)cc4)CC3)c21 | 902
C[C@@H]1C[C@@H](O)c2ncnc(N3CCN(C(=O)[C@H](CNC4CCCCC4)c4ccc(Cl)cc4)CC3)c21 | 9

target: T1, RAC-alpha serine/threonine-protein kinase; conditions: not given; remark: another data set of the same source

SMILES | IC50 [nM]
C[C@@H]1C[C@@H](O)c2ncnc(N3CCN(C(=O)[C@H](CN)c4ccc(C(F)(F)F)cc4)CC3)c21 | 603
C[C@@H]1C[C@@H](O)c2ncnc(N3CCN(C(=O)[C@H](CNCC4CCOCC4)c4ccc(Cl)cc4)CC3)c21 | 102
C[C@@H]1C[C@@H](O)c2ncnc(N3CCN(C(=O)[C@H](CNC4CCCCC4)c4ccc(Cl)cc4)CC3)c21 | 367

target: RAC-gamma serine/threonine-protein kinase (Homo sapiens, UniProt Q9Y243); conditions: not given
Sequence (Q9Y243 whole entry): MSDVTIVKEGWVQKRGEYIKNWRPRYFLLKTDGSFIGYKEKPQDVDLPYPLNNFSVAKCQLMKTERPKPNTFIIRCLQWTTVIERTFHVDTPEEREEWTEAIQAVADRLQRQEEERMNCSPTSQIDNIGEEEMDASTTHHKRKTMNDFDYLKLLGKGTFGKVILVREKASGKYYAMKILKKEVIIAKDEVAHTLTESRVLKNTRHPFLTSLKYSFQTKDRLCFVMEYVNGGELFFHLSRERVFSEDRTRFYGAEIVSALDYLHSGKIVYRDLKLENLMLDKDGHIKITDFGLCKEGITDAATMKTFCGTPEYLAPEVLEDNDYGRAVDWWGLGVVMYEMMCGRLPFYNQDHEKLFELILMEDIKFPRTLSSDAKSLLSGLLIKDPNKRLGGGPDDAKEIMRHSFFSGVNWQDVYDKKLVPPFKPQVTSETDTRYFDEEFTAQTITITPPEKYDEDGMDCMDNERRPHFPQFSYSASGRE

SMILES | IC50 [nM]
C[C@@H]1C[C@@H](O)c2ncnc(N3CCN(C(=O)[C@H](CN)c4ccc(C(F)(F)F)cc4)CC3)c21 | 27
C[C@@H]1C[C@@H](O)c2ncnc(N3CCN(C(=O)[C@H](CNCC4CCOCC4)c4ccc(Cl)cc4)CC3)c21 | 4
C[C@@H]1C[C@@H](O)c2ncnc(N3CCN(C(=O)[C@H](CNCC(F)(F)F)c4ccc(Cl)cc4)CC3)c21 | 798
C[C@@H]1C[C@@H](O)c2ncnc(N3CCN(C(=O)[C@H](CNC4CCCCC4)c4ccc(Cl)cc4)CC3)c21 | 7
C[C@@H]1C[C@@H](O)c2ncnc(N3CCN(C(=O)[C@H](CNC(C)(C)CO)c4ccc(C(F)(F)F)c(F)c4)CC3)c21 | 2

target: T1, RAC-alpha serine/threonine-protein kinase; conditions: BT474M1
Description: Inhibition of Akt1-mediated PRAS40 phosphorylation in human BT474M1 cells

SMILES | inhibition
CC(C)NC[C@@H](C(=O)N1CCN(c2ncnc3c2[C@H](C)C[C@H]3O)CC1)c1ccc(Cl)cc1 [IPATASERTIB] | Active

From ChEMBL document CHEMBL2177010, “Discovery and preclinical pharmacology of a selective ATP-competitive Akt inhibitor (GDC-0068) for the treatment of human tumors” (J Med Chem, 2012)
